According to patent publication US20140243414A1, “PHARMACEUTICAL COMPOSITIONS OF CETP INHIBITORS” (Japan Tobacco Inc., priority 2003, published 2014):
Like-named read-outs stand apart in the source and are kept apart here.

Columns and labels:
CETP [1] = target: T1, CETP (Homo sapiens, UniProt P11597); experiment: Relative CETP activity after single oral doses, Japanese males (Example 7); assay type: in vivo; conditions: for response vs control in vivo at 100 mg: 100 mg with food; for response vs control in vivo at 100 mg / response vs control in vivo at 300 mg / response vs control in vivo at 600 mg / response vs control in vivo at 900 mg / response vs control in vivo at 1200 mg / response vs control in vivo at 1500 mg / response vs control in vivo at 1800 mg: read-out: Percent CETP activity relative to pre-dose; for response vs control in vivo at 300 mg: 300 mg with food; for response vs control in vivo at 600 mg: 600 mg with food; for response vs control in vivo at 900 mg: 900 mg with food; for response vs control in vivo at 1200 mg: 1200 mg with food; for response vs control in vivo at 1500 mg: 1500 mg with food; for response vs control in vivo at 1800 mg: 1800 mg with food
T1 construct: from tissue; host or cells: blood / plasma of human subjects dosed orally with Compound I
T1 sequence (P11597 18-493): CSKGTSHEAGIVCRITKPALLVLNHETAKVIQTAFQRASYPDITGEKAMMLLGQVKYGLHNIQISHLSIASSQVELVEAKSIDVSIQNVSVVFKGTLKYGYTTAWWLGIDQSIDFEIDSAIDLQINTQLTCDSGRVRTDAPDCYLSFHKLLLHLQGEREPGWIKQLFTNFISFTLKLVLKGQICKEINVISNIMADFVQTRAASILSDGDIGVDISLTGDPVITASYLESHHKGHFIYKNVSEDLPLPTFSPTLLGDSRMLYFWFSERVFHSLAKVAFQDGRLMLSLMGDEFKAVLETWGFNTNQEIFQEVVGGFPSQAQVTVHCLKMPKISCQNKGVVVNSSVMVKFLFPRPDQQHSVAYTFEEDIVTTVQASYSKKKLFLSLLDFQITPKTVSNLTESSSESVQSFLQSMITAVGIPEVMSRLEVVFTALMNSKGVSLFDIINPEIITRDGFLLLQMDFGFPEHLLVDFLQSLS
Protocol: Administration, dosing, and sampling schedules were commensurate with those described in Example 1. The tablets were prepared as described in Example 1.
Relative CETP activities (calculated as a percentage of baseline CETP activity) and standard deviations (SD) were measured, and the resulting data is summarized in Table 8.

CETP [2] = target: T1, CETP; experiment: CETP activity change from pre-dose after single oral doses, Caucasian males (Example 5); assay type: in vivo; conditions: for change in vivo at 100 mg: 100 mg with food; for change in vivo at 100 mg / change in vivo at 300 mg / change in vivo at 600 mg / change in vivo at 900 mg / change in vivo at 1200 mg / change in vivo at 1500 mg / change in vivo at 1800 mg: read-out: Percent change from pre-dose in CETP activity (mean); for change in vivo at 300 mg: 300 mg with food; for Decrease in CETP activity relative to pre-dose: 6 hours after administration; for change in vivo at 600 mg: 600 mg with food; for change in vivo at 900 mg: 900 mg with food; for change in vivo at 1200 mg: 1200 mg with food; for change in vivo at 1500 mg: 1500 mg with food; for change in vivo at 1800 mg: 1800 mg with food
Protocol: Administration, dosing, and sampling schedules were substantially similar to those described in Example 1. The tablets were prepared as described in Example 1.
The procedure for determining CETP activity was substantially similar to the procedures described in Tollefson et al., Methods Enzymol., 129, 797-816 (1986), and Kato et al., J. Biol. Chem., 264, 4082-4087 (1989).
CETP activity and changes from baseline (pre-dose) were measured, and the resulting data is summarized in Table 6 as percentage change from baseline.

Structure (SMILES): CCC(CC)CC1(C(=O)Nc2ccccc2SC(=O)C(C)C)CCCCC1 [Compound I, S-[2-([[1-(2-ethylbutyl)cyclohexyl]carbonyl]amino)phenyl]2-methylpropanethioate]
- response vs control in vivo at 100 mg (CETP [1]; post-study): 99.2%
- response vs control in vivo at 300 mg (CETP [1]; post-study): 96.1%
- Decrease in CETP activity relative to pre-dose (CETP [1]; 300 mg, 6 hours after administration): about 19.5%
- response vs control in vivo at 600 mg (CETP [1]; post-study): 103%
- Decrease in CETP activity relative to pre-dose (CETP [1]; 600 mg, 6 hours after administration): about 62%
- response vs control in vivo at 900 mg (CETP [1]; post-study): 95.1%
- Decrease in CETP activity relative to pre-dose (CETP [1]; 900 mg, 4 hours after administration): about 76%
- response vs control in vivo at 1200 mg (CETP [1]; post-study): 95.2%
- response vs control in vivo at 1500 mg (CETP [1]; post-study): 96.9%
- response vs control in vivo at 1800 mg (CETP [1]; post-study): 93%
- response vs control in vivo at 100 mg (CETP [1]; 1 h, 1 h): 96.2%
- response vs control in vivo at 300 mg (CETP [1]; 1 h, 1 h): 100%
- response vs control in vivo at 600 mg (CETP [1]; 1 h, 1 h): 100%
- response vs control in vivo at 900 mg (CETP [1]; 1 h, 1 h): 100%
- response vs control in vivo at 1200 mg (CETP [1]; 1 h, 1 h): 94.2%
- response vs control in vivo at 1500 mg (CETP [1]; 1 h, 1 h): 101%
- response vs control in vivo at 1800 mg (CETP [1]; 1 h, 1 h): 85.3%
- response vs control in vivo at 100 mg (CETP [1]; 2 h, 2 h): 92%
- response vs control in vivo at 300 mg (CETP [1]; 2 h, 2 h): 90.7%
- response vs control in vivo at 600 mg (CETP [1]; 2 h, 2 h): 87.8%
- response vs control in vivo at 900 mg (CETP [1]; 2 h, 2 h): 52.1%
- response vs control in vivo at 1200 mg (CETP [1]; 2 h, 2 h): 54%
- response vs control in vivo at 1500 mg (CETP [1]; 2 h, 2 h): 85.7%
- response vs control in vivo at 1800 mg (CETP [1]; 2 h, 2 h): 15.6%
- response vs control in vivo at 100 mg (CETP [1]; 4 h, 4 h): 93.2%
- response vs control in vivo at 300 mg (CETP [1]; 4 h, 4 h): 83.1%
- response vs control in vivo at 600 mg (CETP [1]; 4 h, 4 h): 52.6%
- response vs control in vivo at 900 mg (CETP [1]; 4 h, 4 h): ~24%
- response vs control in vivo at 1200 mg (CETP [1]; 4 h, 4 h): 12.1%
- response vs control in vivo at 1500 mg (CETP [1]; 4 h, 4 h): 13.3%
- response vs control in vivo at 1800 mg (CETP [1]; 4 h, 4 h): 6%
- response vs control in vivo at 100 mg (CETP [1]; 6 h, 6 h): 90.4%
- response vs control in vivo at 300 mg (CETP [1]; 6 h, 6 h): ~80.5%
- response vs control in vivo at 600 mg (CETP [1]; 6 h, 6 h): ~38%
- response vs control in vivo at 900 mg (CETP [1]; 6 h, 6 h): 24.1%
- response vs control in vivo at 1200 mg (CETP [1]; 6 h, 6 h): 10.5%
- response vs control in vivo at 1500 mg (CETP [1]; 6 h, 6 h): 10.6%
- response vs control in vivo at 1800 mg (CETP [1]; 6 h, 6 h): 8.4%
- response vs control in vivo at 100 mg (CETP [1]; 8 h, 8 h): 90.4%
- response vs control in vivo at 300 mg (CETP [1]; 8 h, 8 h): 80.6%
- response vs control in vivo at 600 mg (CETP [1]; 8 h, 8 h): 39.1%
- response vs control in vivo at 900 mg (CETP [1]; 8 h, 8 h): 29.8%
- response vs control in vivo at 1200 mg (CETP [1]; 8 h, 8 h): 14.7%
- response vs control in vivo at 1500 mg (CETP [1]; 8 h, 8 h): 15.4%
- response vs control in vivo at 1800 mg (CETP [1]; 8 h, 8 h): 12.2%
- response vs control in vivo at 100 mg (CETP [1]; 24 h, 24 h): 99.2%
- response vs control in vivo at 300 mg (CETP [1]; 24 h, 24 h): 88.8%
- response vs control in vivo at 600 mg (CETP [1]; 24 h, 24 h): 65.5%
- response vs control in vivo at 900 mg (CETP [1]; 24 h, 24 h): 60.5%
- response vs control in vivo at 1200 mg (CETP [1]; 24 h, 24 h): 47.6%
- response vs control in vivo at 1500 mg (CETP [1]; 24 h, 24 h): 53.7%
- response vs control in vivo at 1800 mg (CETP [1]; 24 h, 24 h): 49.5%
- change in vivo at 100 mg (CETP [2]; 1 h): -2%
- change in vivo at 100 mg (CETP [2]; 2 h): -2%
- change in vivo at 100 mg (CETP [2]; 4 h): -5%
- change in vivo at 100 mg (CETP [2]; 6 h): -7%
- change in vivo at 100 mg (CETP [2]; 8 h): -6%
- change in vivo at 100 mg (CETP [2]; 24 h): -1%
- change in vivo at 100 mg (CETP [2]; post-study): -5%
- change in vivo at 300 mg (CETP [2]; 1 h): 0%
- change in vivo at 300 mg (CETP [2]; 2 h): -7%
- change in vivo at 300 mg (CETP [2]; 4 h): -12%
- change in vivo at 300 mg (CETP [2]; 6 h): -13%
- change in vivo at 300 mg (CETP [2]; 8 h): -13%
- change in vivo at 300 mg (CETP [2]; 24 h): -6%
- change in vivo at 300 mg (CETP [2]; post-study): 2%
- Decrease in CETP activity relative to pre-dose (CETP [2]; 300 mg): 13%
- change in vivo at 600 mg (CETP [2]; 1 h): -3%
- change in vivo at 600 mg (CETP [2]; 2 h): -12%
- change in vivo at 600 mg (CETP [2]; 4 h): -29%
- change in vivo at 600 mg (CETP [2]; 6 h): -36%
- change in vivo at 600 mg (CETP [2]; 8 h): -36%
- change in vivo at 600 mg (CETP [2]; 24 h): -21%
- change in vivo at 600 mg (CETP [2]; post-study): -6%
- Decrease in CETP activity relative to pre-dose (CETP [2]; 600 mg): 36%
- change in vivo at 900 mg (CETP [2]; 1 h): -3%
- change in vivo at 900 mg (CETP [2]; 2 h): -23%
- change in vivo at 900 mg (CETP [2]; 4 h): -48%
- change in vivo at 900 mg (CETP [2]; 6 h): -55%
- change in vivo at 900 mg (CETP [2]; 8 h): -53%
- change in vivo at 900 mg (CETP [2]; 24 h): -28%
- change in vivo at 900 mg (CETP [2]; post-study): -5%
- Decrease in CETP activity relative to pre-dose (CETP [2]; 900 mg): 55%
- change in vivo at 1200 mg (CETP [2]; 1 h): -3%
- change in vivo at 1200 mg (CETP [2]; 2 h): -17%
- change in vivo at 1200 mg (CETP [2]; 4 h): -58%
- change in vivo at 1200 mg (CETP [2]; 6 h): -71%
- change in vivo at 1200 mg (CETP [2]; 8 h): -70%
- change in vivo at 1200 mg (CETP [2]; 24 h): -43%
- change in vivo at 1200 mg (CETP [2]; post-study): -4%
- change in vivo at 1500 mg (CETP [2]; 1 h): -3%
- change in vivo at 1500 mg (CETP [2]; 2 h): -32%
- change in vivo at 1500 mg (CETP [2]; 4 h): -72%
- change in vivo at 1500 mg (CETP [2]; 6 h): -83%
- change in vivo at 1500 mg (CETP [2]; 8 h): -81%
- change in vivo at 1500 mg (CETP [2]; 24 h): -48%
- change in vivo at 1500 mg (CETP [2]; post-study): 0%
- change in vivo at 1800 mg (CETP [2]; 1 h): -3%
- change in vivo at 1800 mg (CETP [2]; 2 h): -23%
- change in vivo at 1800 mg (CETP [2]; 4 h): -67%
- change in vivo at 1800 mg (CETP [2]; 6 h): -74%
- change in vivo at 1800 mg (CETP [2]; 8 h): -71%
- change in vivo at 1800 mg (CETP [2]; 24 h): -42%
- change in vivo at 1800 mg (CETP [2]; post-study): -5%
